Values quoted from earlier work as cited in patent US20040265249A1, “Composition for protecting skin from damaging effects of ultraviolet light” (Desert Whale Jojoba Company, priority 2003, published 2004).

Conditions: Yagi K, Ohishi N, 1979

Structure (SMILES): COc1cc(/C=C/C(=O)O)ccc1O [ferulic acid]
- antioxidant action: can scavenge free radicals
